Data from patent US12251411B2, “Methods of treating endometrial cancer using hemp extract” (Ecofibre USA Inc., priority 2021, dated 2025).

system: not given; details: cited from earlier work

Row | Compound | Cmax [nM]
1 | CC(C)NCC(O)COc1cccc2ccccc12 (stereo not drawn) [Propranolol] | 102
2 | Cc1ccc(C(=O)Nc2ccc(CN3CCN(C)CC3)c(C(F)(F)F)c2)cc1C#Cc1cnc2cccnn12 [Ponatinib] | 137
3 | N#CC[C@H](C1CCCC1)n1cc(-c2ncnc3[nH]ccc23)cn1 [Ruxolitinib] | 587

same assay, conditions: in vivo; cited from earlier work

Row | Compound | Cmax [nM]
4 | COc1cc2c(c(OC)c1OC)-c1ccc(OC)c(=O)cc1[C@@H](NC(C)=O)CC2 [Colchicine] | 6

system: patient derived organoids; format: cell-based, human; details: % of cells that died compared to control; organoids of the chemoresistant patient
Procedure: In addition to the agents listed above, several other drugs were tested to see if they influenced organoid growth. In this case, results are shown as the % of cells that died compared to control. […] This is consistent with the patient's actual lack of response to treatment with paclitaxel.

Row | Compound | % Cell Death
5 | CCC1=C[C@@H]2CN(C1)Cc1c([nH]c3ccccc13)[C@@](C(=O)OC)(c1cc3c(cc1OC)N(C)[C@H]1[C@@](O)(C(=O)OC)[C@H](OC(C)=O)[C@]4(CC)C=CCN5CC[C@]31[C@@H]54)C2 [Vinorelbine] | 45%
6 | CC(=O)O[C@@]12CO[C@@H]1C[C@H](O)[C@@]1(C)C(=O)[C@H](O)C3=C(C)[C@@H](OC(=O)[C@H](O)[C@@H](NC(=O)OC(C)(C)C)c4ccccc4)C[C@@](O)([C@@H](OC(=O)c4ccccc4)[C@H]21)C3(C)C [Docetaxel] | No Response
7 | O=P1(N(CCCl)CCCl)NCCCO1 (stereo not drawn) [Cyclosphosphamide] | 32%
8 | COc1cccc2c1C(=O)c1c(O)c3c(c(O)c1C2=O)C[C@@](O)(C(=O)CO)C[C@@H]3O[C@H]1C[C@H](N)[C@H](O)[C@H](C)O1 [Doxorubicin] | 39%
9 | CCc1c2c(nc3ccc(OC(=O)N4CCC(N5CCCCC5)CC4)cc13)-c1cc3c(c(=O)n1C2)COC(=O)[C@]3(O)CC [Irinotecan] | 51%
10 | C=C1C[C@@H]2CC[C@@]34C[C@H]5O[C@H]6[C@@H](O3)[C@H]3O[C@H](CC[C@@H]3O[C@H]6[C@H]5O4)CC(=O)C[C@@H]3[C@@H](OC)[C@@H](C[C@H](O)CN)O[C@H]3C[C@H]3O[C@@H](CC[C@@H]1O2)C[C@@H](C)C3=C [eribulin] | No Response
11 | COc1cc2c(cc1O)CCN[C@]21CS[C@@H]2c3c(OC(C)=O)c(C)c4c(c3[C@H](COC1=O)N1[C@@H]2[C@H]2c3c(cc(C)c(OC)c3O)C[C@@H]([C@@H]1O)N2C)OCO4 [Trabectedine] | 32%
12 | Nc1ccn([C@@H]2O[C@H](CO)[C@@H](O)C2(F)F)c(=O)n1 [Gemcitabine] | 56%
13 | O=C1[O][Pt]2([NH][C@@H]3CCCC[C@H]3[NH]2)[O]C1=O [oxaliplatin] | No Response
14 | CN(Cc1cnc2nc(N)nc(N)c2n1)c1ccc(C(=O)N[C@@H](CCC(=O)O)C(=O)O)cc1 [methotrexate] | No Response
15 | CC[C@]1(O)C[C@@H]2CN(CCc3c([nH]c4ccccc34)[C@@](C(=O)OC)(c3cc4c(cc3OC)N(C)[C@H]3[C@@](O)(C(=O)OC)[C@H](OC(C)=O)[C@]5(CC)C=CCN6CC[C@]43[C@@H]65)C2)C1 [Vinblastine] | 38%
16 | CC[C@]1(O)C[C@H]2CN(CCc3c([nH]c4ccccc34)[C@@](C(=O)OC)(c3cc4c(cc3OC)N(C=O)[C@H]3[C@@](O)(C(=O)OC)[C@H](OC(C)=O)[C@]5(CC)C=CCN6CC[C@]43[C@@H]65)C2)C1 [vincristine] | No Response
17 | Bleomycin | 53%
18 | O=P1(NCCCl)OCCCN1CCCl (stereo not drawn) [ifosfamide] | No Response
19 | O=C1c2c(O)ccc(O)c2C(=O)c2c(NCCNCCO)ccc(NCCNCCO)c21 [Mitoxantrone] | 50%
20 | COc1cccc2c1C(=O)c1c(O)c3c(c(O)c1C2=O)C[C@@](O)(C(=O)CO)C[C@@H]3O[C@H]1C[C@H](N)[C@@H](O)[C@H](C)O1 [epirubicin] | No Response
21 | CN(C)/N=N/c1[nH]cnc1C(N)=O [Dacarbazine] | 32%
22 | N[C@@H](Cc1ccc(N(CCCl)CCCl)cc1)C(=O)O [Melphalan] | 40%
23 | CO[C@H]1C(=O)[C@]2(C)[C@@H](OC)C[C@H]3OC[C@@]3(OC(C)=O)[C@H]2[C@H](OC(=O)c2ccccc2)[C@]2(O)C[C@H](OC(=O)[C@H](O)[C@@H](NC(=O)OC(C)(C)C)c3ccccc3)C(C)=C1C2(C)C [Cabazitaxel] | 37%
24 | CO[C@@]12[C@H](COC(N)=O)C3=C(C(=O)C(C)=C(N)C3=O)N1C[C@@H]1N[C@@H]12 [mitomycin] | No Response
